Data published in ChEMBL document CHEMBL6071184, “Lasamide, a Potent Human Carbonic Anhydrase Inhibitor from the Market: Inhibition Profiling and Crystallographic Studies” (ACS Med Chem Lett, 2024).

What was measured:
Carbonic anhydrase 7 = Carbonic anhydrase 7 (Homo sapiens, UniProt P43166)
Description: Inhibition of full-length recombinant human CA VII-catalysed CO2 hydration by stopped-flow technique

Carbonic anhydrase 4 = Carbonic anhydrase 4 (Homo sapiens, UniProt P22748); assay: Inhibition of full-length recombinant human CA IV-catalysed CO2 hydration by stopped-flow technique
Carbonic anhydrase 3 = Carbonic anhydrase 3 (Homo sapiens, UniProt P07451)
Chain of Carbonic anhydrase 3 (P07451 whole entry): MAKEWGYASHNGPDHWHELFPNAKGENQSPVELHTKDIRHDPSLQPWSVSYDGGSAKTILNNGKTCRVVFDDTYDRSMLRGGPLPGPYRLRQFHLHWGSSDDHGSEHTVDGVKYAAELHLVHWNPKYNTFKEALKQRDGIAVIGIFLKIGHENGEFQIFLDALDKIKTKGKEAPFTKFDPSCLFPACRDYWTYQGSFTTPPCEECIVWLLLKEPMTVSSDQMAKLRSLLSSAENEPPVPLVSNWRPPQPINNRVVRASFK
Description: Inhibition of full-length recombinant human CA III-catalysed CO2 hydration by stopped-flow technique

Carbonic anhydrase 14 = Carbonic anhydrase 14 (Homo sapiens, UniProt Q9ULX7); assay: Inhibition of full-length recombinant human CA XIV-catalysed CO2 hydration by stopped-flow technique
Chain of Carbonic anhydrase 14 (Q9ULX7 whole entry): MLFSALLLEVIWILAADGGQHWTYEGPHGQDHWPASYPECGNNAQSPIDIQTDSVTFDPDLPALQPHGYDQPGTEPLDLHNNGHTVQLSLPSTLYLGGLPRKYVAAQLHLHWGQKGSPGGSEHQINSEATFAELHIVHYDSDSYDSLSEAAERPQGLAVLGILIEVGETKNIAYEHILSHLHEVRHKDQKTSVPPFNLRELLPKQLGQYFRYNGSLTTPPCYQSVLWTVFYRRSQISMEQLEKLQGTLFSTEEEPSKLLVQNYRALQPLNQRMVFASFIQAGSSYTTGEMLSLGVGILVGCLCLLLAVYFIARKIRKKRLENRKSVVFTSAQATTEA

[1] = biological target: Carbonic anhydrase 5B, mitochondrial (Homo sapiens, UniProt Q9Y2D0); assay: Inhibition of full-length recombinant human CA VB-catalysed CO2 hydration by stopped-flow technique
Chain of Carbonic anhydrase 5B, mitochondrial (Q9Y2D0 whole entry): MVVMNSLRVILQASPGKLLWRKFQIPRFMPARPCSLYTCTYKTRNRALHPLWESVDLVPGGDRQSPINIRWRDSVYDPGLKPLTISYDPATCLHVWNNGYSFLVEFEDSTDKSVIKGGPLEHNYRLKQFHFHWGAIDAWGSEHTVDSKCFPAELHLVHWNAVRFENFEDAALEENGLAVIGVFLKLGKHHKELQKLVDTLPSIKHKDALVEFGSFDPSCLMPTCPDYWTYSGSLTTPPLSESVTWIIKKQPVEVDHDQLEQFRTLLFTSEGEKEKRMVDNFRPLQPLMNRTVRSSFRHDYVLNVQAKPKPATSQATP

[2] = biological target: Carbonic anhydrase 5A, mitochondrial (Homo sapiens, UniProt P35218)
Chain of Carbonic anhydrase 5A, mitochondrial (P35218 whole entry): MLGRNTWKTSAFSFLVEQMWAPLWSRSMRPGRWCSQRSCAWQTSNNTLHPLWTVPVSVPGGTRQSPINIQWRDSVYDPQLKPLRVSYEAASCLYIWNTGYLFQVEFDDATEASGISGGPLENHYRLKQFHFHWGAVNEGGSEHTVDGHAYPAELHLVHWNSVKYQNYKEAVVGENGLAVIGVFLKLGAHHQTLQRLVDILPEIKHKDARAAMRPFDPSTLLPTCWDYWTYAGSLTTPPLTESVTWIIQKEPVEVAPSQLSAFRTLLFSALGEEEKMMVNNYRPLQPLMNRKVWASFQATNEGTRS
Description: Inhibition of full-length recombinant human CA VA-catalysed CO2 hydration by stopped-flow technique

Carbonic anhydrase 6 [3] = biological target: T1, Carbonic anhydrase 6 (Homo sapiens, UniProt P23280)
T1 sequence (P23280 whole entry): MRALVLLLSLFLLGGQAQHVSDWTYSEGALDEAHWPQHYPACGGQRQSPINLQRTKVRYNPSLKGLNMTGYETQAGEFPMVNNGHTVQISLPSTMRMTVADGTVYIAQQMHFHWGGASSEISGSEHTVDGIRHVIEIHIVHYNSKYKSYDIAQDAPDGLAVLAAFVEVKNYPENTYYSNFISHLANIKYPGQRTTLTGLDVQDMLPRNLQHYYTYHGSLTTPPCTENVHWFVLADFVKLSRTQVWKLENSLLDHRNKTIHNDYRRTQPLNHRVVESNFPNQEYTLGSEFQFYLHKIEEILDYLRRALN
Description: Inhibition of full-length recombinant human saliva CA VI-catalysed CO2 hydration by stopped-flow technique

Carbonic anhydrase 13 = Carbonic anhydrase 13 (Mus musculus, UniProt Q9D6N1); assay: Inhibition of mouse CA XIII-catalysed CO2 hydration by stopped-flow technique
Chain of Carbonic anhydrase 13 (Q9D6N1 whole entry): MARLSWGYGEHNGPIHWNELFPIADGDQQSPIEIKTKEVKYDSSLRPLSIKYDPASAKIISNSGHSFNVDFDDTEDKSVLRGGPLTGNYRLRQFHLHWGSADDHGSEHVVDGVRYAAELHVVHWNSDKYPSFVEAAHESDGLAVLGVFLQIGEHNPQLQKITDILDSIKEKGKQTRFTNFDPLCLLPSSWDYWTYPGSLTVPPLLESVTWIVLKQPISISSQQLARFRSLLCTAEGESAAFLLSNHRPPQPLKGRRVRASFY

Carbonic anhydrase 6 [4] = biological target: T1, Carbonic anhydrase 6; remark: listed apart in the source
Description: Inhibition of full-length recombinant human milk CA VI-catalysed CO2 hydration by stopped-flow technique

Chain of Carbonic anhydrase 4 (P22748 whole entry): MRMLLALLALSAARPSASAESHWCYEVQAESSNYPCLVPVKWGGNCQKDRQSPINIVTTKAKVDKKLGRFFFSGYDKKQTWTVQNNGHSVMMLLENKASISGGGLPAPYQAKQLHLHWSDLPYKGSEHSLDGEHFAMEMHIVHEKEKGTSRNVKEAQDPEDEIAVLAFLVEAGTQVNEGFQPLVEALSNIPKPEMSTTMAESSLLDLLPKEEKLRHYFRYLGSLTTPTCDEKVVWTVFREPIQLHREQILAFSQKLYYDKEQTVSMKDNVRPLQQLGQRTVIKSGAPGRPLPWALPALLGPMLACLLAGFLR
Chain of Carbonic anhydrase 7 (P43166 whole entry): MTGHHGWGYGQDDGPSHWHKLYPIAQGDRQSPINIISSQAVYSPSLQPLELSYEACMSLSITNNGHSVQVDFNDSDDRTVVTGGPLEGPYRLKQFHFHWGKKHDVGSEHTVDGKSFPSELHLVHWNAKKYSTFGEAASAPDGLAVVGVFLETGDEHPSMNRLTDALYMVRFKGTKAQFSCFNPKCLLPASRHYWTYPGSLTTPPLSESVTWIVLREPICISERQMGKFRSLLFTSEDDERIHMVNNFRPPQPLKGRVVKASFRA

- Ki (Carbonic anhydrase 7): 6.63 nM
- Ki (Carbonic anhydrase 4): 1.91 nM
- Ki (Carbonic anhydrase 3): > 50000 nM
- Ki (Carbonic anhydrase 14): 11.9 nM
- Ki [1]: 14.2 nM
- Ki [2]: 3.49 nM
- Ki (Carbonic anhydrase 6 [3]): 11.7 nM
- Ki (Carbonic anhydrase 13): 9.37 nM
- Ki (Carbonic anhydrase 6 [4]): 8.51 nM
SMILES: NS(=O)(=O)c1cc(C(=O)O)c(Cl)cc1Cl
